# Results from US20060135773A1, “Trisubstituted nitrogen modulators of tyrosine phosphatases” (priority 2004, published 2006).
# Molecular target: T1, PTP-1B (Homo sapiens, UniProt P18031)
# T1 construct: PTP-1B (purified, 1 mg/mL) as a 1:250 dilution
# T1 sequence (P18031 1-321 limits assumed): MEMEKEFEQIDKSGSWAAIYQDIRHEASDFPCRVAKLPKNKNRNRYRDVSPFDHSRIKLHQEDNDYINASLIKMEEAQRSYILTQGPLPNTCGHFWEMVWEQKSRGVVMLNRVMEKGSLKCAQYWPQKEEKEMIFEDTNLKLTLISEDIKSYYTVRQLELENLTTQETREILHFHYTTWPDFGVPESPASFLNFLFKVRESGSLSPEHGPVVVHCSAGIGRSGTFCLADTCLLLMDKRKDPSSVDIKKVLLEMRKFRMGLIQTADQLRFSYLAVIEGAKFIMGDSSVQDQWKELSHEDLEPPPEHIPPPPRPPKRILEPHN
# Experiment: pNPP tyrosine phosphatase inhibition assay, PTP-1B
# Type: biochemical
# Conditions: pNPP assay, PTP-1B; read-out: Activity Class (IC50 ranges)
# Method in brief: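 Test compounds were screened at two final levels, 31.3 and 10 µM, against 4 µg/mL purified PTP-1B. The substrate was 10 mM p-nitrophenyl phosphate, with incubation for 10 min at 30°C before a K2CO3 quench. Activity was taken from A405.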
row,Molecule,IC50 [nM]
1,"NC(=O)c1cccc(S(=O)(=O)N(Cc2ccc(C(F)(F)P(=O)(O)O)c(Cl)c2)Cc2ccccc2-c2ccccc2)c1 [Compound 214, [(4-{[Biphenyl-2-ylmethyl-(3-carbamoyl-benzenesulfonyl)-amino]-methyl}-2-chloro-phenyl)-difluoro-methyl]-phosphonic acid]",250 to 499
2,"COc1ccccc1S(=O)(=O)N(Cc1ccc(C(F)(F)P(=O)(O)O)c(Cl)c1)Cc1ccccc1OCCCC(C)C [Compound 215, {[2-Chloro-4-({(2-methoxy-benzenesulfonyl)-[2-(4-methyl-pentyloxy)-benzyl]-amino}-methyl)-phenyl]-difluoro-methyl}-phosphonic acid]",250 to 499
3,"N#Cc1cccc(S(=O)(=O)N(Cc2ccc(C(F)(F)P(=O)(O)O)c(Cl)c2)Cc2ccccc2-c2ccccc2)c1 [Compound 216, [(4-{[Biphenyl-2-ylmethyl-(3-cyano-benzenesulfonyl)-amino]-methyl}-2-chloro-phenyl)-difluoro-methyl]-phosphonic acid]",250 to 499
4,"CCOc1cccc(-c2ccccc2CN(Cc2ccc(C(F)(F)P(=O)(O)O)c(Cl)c2)S(=O)(=O)c2ccccc2OC)c1 [Compound 217, [(2-Chloro-4-{[(3′-ethoxy-biphenyl-2-ylmethyl)-(2-methoxy-benzenesulfonyl)-amino]-methyl}-phenyl)-difluoro-methyl]-phosphonic acid]",< 99
5,"CCOC(=O)[C@H](C)NP(=O)(O)C(F)(F)c1ccc(CN(Cc2ccc(-c3cccc(C#N)c3)cc2)S(=O)(=O)c2ccccc2OC)cc1Cl [Compound 219, [S]-N-[(2-Chloro-4-{[(3′-cyano-biphenyl-4-ylmethyl)-(2-methoxy-benzenesulfonyl)-amino]-methyl}-phenyl)-difluoro-methyl]-phosphonyl-(ethyl alaninate)]",250 to 499
6,"COc1ccccc1S(=O)(=O)N(Cc1ccc(-c2ccc(O)c(C(=O)O)c2)cc1)Cc1ccc(OCC(=O)O)c(Cl)c1 [Compound 222, 4′-{[(4-Carboxymethoxy-3-chloro-benzyl)-(2-methoxy-benzenesulfonyl)-amino]-methyl}-4-hydroxy-biphenyl-3-carboxylic acid]",> 25000
7,"COc1ccccc1S(=O)(=O)N(Cc1ccc(N(CC(C)C(=O)O)C(=O)C(=O)O)cc1)Cc1ccc(N(CC(C)C(=O)O)C(=O)C(=O)O)cc1 (centres unmarked) [Compound 223, 3-[(4-{[{4-[(2-Carboxy-propyl)-oxalyl-amino]-benzyl}-(2-methoxy-benzenesulfonyl)-amino]-methyl}-phenyl)-oxalyl-amino]-2-methyl-propionic acid]",> 25000
8,"COc1ccccc1S(=O)(=O)N(Cc1ccc(OCC(=O)O)c(C(=O)O)c1)Cc1ccccc1-c1ccccc1 [Compound 224, 5-{[Biphenyl-2-ylmethyl-(2-methoxy-benzenesulfonyl)-amino]-methyl}-2-carboxymethoxy-benzoic acid]",> 25000
9,"COc1ccccc1S(=O)(=O)N(Cc1ccc(-c2cccc(C#N)c2)cc1)Cc1ccc(C(F)(F)P(=O)(OCOC(=O)C(C)(C)C)OCOC(=O)C(C)(C)C)c(Cl)c1 [Compound 226, 2,2-Dimethyl-propionic acid [(2-chloro-4-{[(3′-cyano-biphenyl-4-ylmethyl)-(2-methoxy-benzenesulfonyl)-amino]-methyl}-phenyl)-difluoro-methyl]-(2,2-dimethyl-propionyloxymethoxy)-phosphinoyloxymethyl ester]",> 25000
10,"COc1ccccc1S(=O)(=O)N(Cc1ccc(-c2cccc(C#N)c2)cc1)Cc1ccc(C(F)(F)P(=O)(O)OCOC(=O)C(C)(C)C)c(Cl)c1 [Compound 227, 2,2-Dimethyl-propionic acid [(2-chloro-4-{[(3′-cyano-biphenyl-4-ylmethyl)-(2-methoxy-benzenesulfonyl)-amino]-methyl}-phenyl)-difluoro-methyl]-hydroxy-phosphinoyloxymethyl ester]",> 25000
11,"O=P(O)(O)C(F)(F)c1ccc(CN(Cc2ccccc2-c2ccccc2)S(=O)(=O)c2cnccc2I)cc1Cl [Compound 230, [(4-{[Biphenyl-2-ylmethyl-(4-iodo-pyridine-3-sulfonyl)-amino]-methyl}-2-chloro-phenyl)-difluoro-methyl]-phosphonic acid]",100 to 249
12,"COC(=O)c1ccc(CN(Cc2ccc(C(F)(F)P(=O)(O)O)c(Cl)c2)S(=O)(=O)c2ccccc2OC)cc1 [Compound 231, 4-{[[3-Chloro-4-(difluoro-phosphono-methyl)-benzyl]-(2-methoxy-benzenesulfonyl)-amino]-methyl}-benzoic acid methyl ester]",250 to 499
13,"O=P(O)(O)C(F)(F)c1ccc(CN(Cc2ccc(C(F)(F)P(=O)(O)O)c(Cl)c2)C2CCc3ccccc32)cc1Cl (centres unmarked) [Compound 232, {[2-Chloro-4-({[3-chloro-4-(difluoro-phosphono-methyl)-benzyl]-indan-1-yl-amino}-methyl)-phenyl]-difluoro-methyl}-phosphonic acid]",250 to 499
14,"COc1ccccc1S(=O)(=O)N(Cc1ccc(C(=O)O)cc1)Cc1ccc(C(F)(F)P(=O)(O)O)c(Cl)c1 [Compound 233, 4-{[[3-Chloro-4-(difluoro-phosphono-methyl)-benzyl]-(2-methoxy-benzenesulfonyl)-amino]-methyl}-benzoic acid]",100 to 249
15,"COC(=O)c1ccc(CN(Cc2ccc(C(F)(F)P(=O)(O)O)c(Cl)c2)S(=O)(=O)c2ccccc2)cc1 [Compound 234, 4-({Benzenesulfonyl-[3-chloro-4-(difluoro-phosphono-methyl)-benzyl]-amino}-methyl)-benzoic acid methyl ester]",250 to 499
16,"O=C(O)c1ccc(CN(Cc2ccc(C(F)(F)P(=O)(O)O)c(Cl)c2)S(=O)(=O)c2ccccc2)cc1 [Compound 235, 4-({Benzenesulfonyl-[3-chloro-4-(difluoro-phosphono-methyl)-benzyl]-amino}-methyl)-benzoic acid]",250 to 499

row,Molecule,IC50 [nM]
1,(4-{[(4-Cyano-benzyl)-(2-methoxy-benzenesulfonyl)-amino]-methyl}-phenyl)-difluoro-acetic acid [Compound 130],> 25000
2,Methyl 2-(3-{4-[({[4-(difluorophosphonomethyl)-3-chlorophenyl]methyl}[(2-methoxyphenyl)sulfonyl]amino)methyl]phenyl}phenyl)acetate [Compound 191],< 99
3,Methyl 3-{4-[({[4-(difluorophosphonomethyl)-3-chlorophenyl]methyl}[(2-methoxyphenyl)sulfonyl]amino)methyl]phenyl}-5-bromobenzoate [Compound 194],250 to 499
4,Methyl 5-{4-[({[4-(difluorophosphonomethyl)-3-chlorophenyl]methyl}[(2-methoxyphenyl)sulfonyl]amino)methyl]phenyl}-2-methoxybenzoate [Compound 205],100 to 249
5,[(2-Chloro-4-{[(2-chloro-4-fluoro-benzenesulfonyl)-(3′-cyano-biphenyl-4-ylmethyl)-amino]-methyl}-phenyl)-difluoro-methyl]-phosphonic acid [Compound 164],< 99
6,[(2-Chloro-4-{[(4′-cyano-biphenyl-4-ylmethyl)-(2-methoxy-benzenesulfonyl)-amino]-methyl}-phenyl)-difluoro-methyl]-phosphonic acid [Compound 157],100 to 249
7,[(4-{[(3′-Carbamoyl-biphenyl-2-ylmethyl)-(2-methoxy-benzenesulfonyl)-amino]-methyl}-2-chloro-phenyl)-difluoro-methyl]-phosphonic acid [Compound 187],< 99
8,{[4-(difluorophosphonomethyl)-3-chlorophenyl]methyl}(cycloheptylmethyl)[(2-methoxyphenyl)sulfonyl]amine [Compound 202],100 to 249
9,{[4-(difluorophosphonomethyl)-3-chlorophenyl]methyl}(cyclohexylmethyl)[(2-methoxyphenyl)sulfonyl]amine [Compound 203],250 to 499
10,{[4-(difluorophosphonomethyl)-3-chlorophenyl]methyl}[(2 methoxyphenyl)sulfonyl]{[2-(3-methylthiophenyl)phenyl]methyl}amine [Compound 206],< 99
11,"{[4-(difluorophosphonomethyl)-3-chlorophenyl]methyl}[(2-(2,3-dihydrobenzo[b]furan-5-yl)phenyl)methyl][(2-methoxyphenyl)sulfonyl]amine [Compound 204]",< 99
12,{[4-(difluorophosphonomethyl)-3-chlorophenyl]methyl}[(2-ethoxyphenyl)methyl][(2-methoxyphenyl)sulfonyl]amine [Compound 212],250 to 499
13,{[4-(difluorophosphonomethyl)-3-chlorophenyl]methyl}[(2-methoxyphenyl)sulfonyl](2-piperidylmethyl)amine [Compound 213],2500 to 25000
14,{[4-(difluorophosphonomethyl)-3-chlorophenyl]methyl}[(2-methoxyphenyl)sulfonyl](3-piperidylmethyl)amine [Compound 209],2500 to 25000
15,{[4-(difluorophosphonomethyl)-3-chlorophenyl]methyl}[(2-methoxyphenyl)sulfonyl]{[2-(4-methylphenyl)phenyl]methyl}amine [Compound 198],< 99
16,{[4-(difluorophosphonomethyl)-3-chlorophenyl]methyl}{[2-(3-ethylphenyl)phenyl]methyl}[(2-methoxyphenyl)sulfonyl]amine [Compound 196],100 to 249
